The first test deals with T1, Inosine-5'-monophosphate dehydrogenase 2 (Homo sapiens, UniProt P12268). Nature of the test: Inhibitory concentration required against Inosine Monophosphate Dehydrogenase II (IMPDH II) was determined in vitro at a concentration 500 uM.
In the case of `COc1cc(Nc2cccc(-c3ccccc3)c2)ccc1-c1cnco1`, the inhibition (commonly the change of the read-out against control, counted positive when it falls) was 30%.

A further test deals with T1, Inosine-5'-monophosphate dehydrogenase 2. The experiment in a line: Inhibition of Inosine Monophosphate Dehydrogenase II (IMPDH II).
On to `COc1cc(-c2ccccc2)nc(Nc2ccc(-c3cnco3)c(OC)c2)n1`, for which half-maximal inhibition (IC50) was put at 110 nM.

Consider `COc1cc(Nc2cc(-c3ccccc3)on2)ccc1-c1cnco1`, for which the IC50 (as a rule, the concentration that inhibits the measured activity by half) was determined as 120 nM.

`COc1cc(Nc2nnc(-c3ccccc3)[nH]2)ccc1-c1cnco1` returned a 50% inhibitory concentration (IC50) of 190 nM.

Consider `COc1cc(Nc2cnc(-c3ccccc3)s2)ccc1-c1cnco1`, for which the midpoint of inhibition, the IC50, lay at 760 nM.

The molecule `COc1cc(Nc2nnc(-c3ccccc3)o2)ccc1-c1cnco1` displayed an IC50 of 44 nM.

Molecule `COc1cc(NC2=NCC(c3ccccc3)O2)ccc1-c1cnco1` (stereo unspecified) yielded an IC50 of 110 nM.

Consider `COc1cc(Nc2nc(-c3ccccc3)cs2)ccc1-c1cnco1`, for which the 50% inhibitory concentration (IC50) was found to be 300 nM.

For the molecule `COc1cc(Nc2nnc(-c3ccccc3)s2)ccc1-c1cnco1`, the midpoint of inhibition, the IC50, lay at 330 nM.

With `COc1cc(Nc2noc(-c3ccccc3)n2)ccc1-c1cnco1`, 59 nM corresponded to half-maximal inhibition (IC50).

The target is the same in the next test. The experiment in a line: Inhibitory concentration required against Inosine Monophosphate Dehydrogenase II (IMPDH II) was determined in vitro at a concentration 100 uM.
Molecule `COc1cc(Nc2nc(-c3ccccc3)c[nH]2)ccc1-c1cnco1` displayed an inhibition of 7%.

For the origin of these results see ChEMBL document CHEMBL1134939, “A survey of cyclic replacements for the central diamide moiety of inhibitors of inosine monophosphate dehydrogenase” (Bioorg Med Chem Lett, 2002).
